Series [1] addresses T1, human DLL3 (Homo sapiens, UniProt Q9NYJ7).
T1 sequence (Q9NYJ7 27-618): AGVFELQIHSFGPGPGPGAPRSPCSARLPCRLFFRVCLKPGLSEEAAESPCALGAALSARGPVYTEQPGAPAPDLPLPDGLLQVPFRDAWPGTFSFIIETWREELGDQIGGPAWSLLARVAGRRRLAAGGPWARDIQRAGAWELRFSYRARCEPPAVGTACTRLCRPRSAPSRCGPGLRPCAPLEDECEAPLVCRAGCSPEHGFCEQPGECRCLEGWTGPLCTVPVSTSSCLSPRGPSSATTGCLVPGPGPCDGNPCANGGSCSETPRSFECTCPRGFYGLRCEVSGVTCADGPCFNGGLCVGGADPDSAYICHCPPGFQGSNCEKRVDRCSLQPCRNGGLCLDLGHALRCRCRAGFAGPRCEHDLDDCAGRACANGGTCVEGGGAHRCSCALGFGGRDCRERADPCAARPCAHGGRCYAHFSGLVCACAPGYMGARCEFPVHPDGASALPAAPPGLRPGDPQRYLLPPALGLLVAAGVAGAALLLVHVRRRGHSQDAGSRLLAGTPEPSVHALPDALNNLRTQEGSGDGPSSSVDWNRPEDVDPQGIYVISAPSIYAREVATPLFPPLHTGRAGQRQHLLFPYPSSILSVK
Put plainly: Affinity determination by Surface Plasmon Resonance (SPR). It is filed as binding. To be noted: 25° C., biotinylated human DLL3 immobilized on streptavidin sensor chip, 1:1 binding model; read-out: SPR KD. In outline:
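Kinetic and affinity constants were derived by fitting sensorgrams to a 1:1 binding model. Graded compound concentrations flowed at 100 μL/minute in 20 mM phosphate running buffer with 2% DMSO over streptavidin-immobilized biotinylated human DLL3, reference-subtracted.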

Series [2] has as its system CT26.DLL3 cells. As to the kind of experiment: Cell binding (total uptake) of [177Lu]Lu-test peptide, CT26.DLL3 cells. The series is classed as cell-based. The settings on record: 1 hour at 37° C. As to the method:
(§1) [^177Lu]LuCl3 was received from venders in HCl solution. For every mCi of [^177Lu]LuCl3 added to the reaction vial (1.5 mL Eppendorf vial), ammonium acetate buffer (0.2 M, pH 4.9, 100 μL, containing 1% w/v ascorbic acid and 6% v/v ethanol) and peptide conjugate (1 nmol). A peptide conjugate of the present disclosure is also referred to herein as a “chelator-peptide”. The pH of the solution was determined to be approximately 5 by using pH strips. The reaction vial was incubated at 80° C., 700 RPM for 17-20 minutes. A sample from the reaction was analyzed by RP-HPLC using an Agilent Infinity II 1260 HPLC to determine reaction completion and radiochemical purity of [^177Lu]Lu-chelator-peptide. HPLC conditions: Waters XBridge BEH C18 Column, 130 Å, 3.5 um, 4.6 mm×250 mm; mobile phase: Solvent A=water (with 0.1% formic acid), solvent B=acetonitrile (with 0.1% formic acid). Gradients: 25-45% B in 10 minutes, 45-65% B in 12 minutes, 65-90% in 6 minutes at a flow rate of 0.5 mL/minute. Required amounts of the product was formulated in 1% PBSA for cell studies.
(§2) The study was conducted using SHP-77, CT26.WT, and CT26.DLL3 cells (Table 7) Adherent cell studies: The cells were cultured in appropriate culture media (20 mL) in tissue culture treated T150 flasks at 37° C. and 5% CO2. Adherent cells were detached (60-70% confluent) using 5 mL Versene at 37° C. for 3 minutes. After confirming the viability using countess and count of detached cells using Trypan blue, the cells were centrifuged at 4° C. for 5 minutes (1,000 rpm). The cell pellet obtained was washed once with PBS and resuspended in 1% PBSA to obtain the desired cell concentration (5-25 million cells/mL).
(§3) Cell numbers used for the assay were in the range of 5 million cells/condition −25 million cells/condition.
(§4) Total uptake: Cells were incubated with 300 μL (0.8 μCi) of the incubation buffer (containing radiolabeled peptide [^177Lu] Lu-test peptide) for 1 hour at 37° C. (Table 8). Post incubation, the cells were pelleted and washed 2 times using cold PBS+1% BSA. The supernatant and washes were combined and counted together as “unbound fraction” in a gamma counter. The cells were then resuspended in 300 μL of 1% PBS+1% BSA and counted in the gamma counter as “bound fraction”.
(§5) In these Tables, “A” represents %≤25; “B” represents 25<%≤50; “C” represents %>50.

Series [3] relates to SHP-77 tumors. Put plainly: Ex vivo biodistribution of radiolabeled peptides in nude mice bearing SHP-77 tumors. To be noted: [177Lu]Lu labelling, nude mice bearing SHP-77 tumors (n = 3), 24 hours post-injection. The method, then: Mice were intravenously injected (via the lateral tail vein) with a bolus dose of the radiolabeled peptides for ex vivo biodistribution studies when tumor volumes were in range of 200-400 mm^3 for xenograft mice and when age of the mice was 5-7 weeks for tumor naïve mice studies. To assess the amount of radionuclide injected into individual mice the syringe was assayed in a dose calibrator before and after injection for [^177Lu]Lu-peptide.
Mice were euthanized at pre-determined time points and selected tissues were resected and collected into pre-weighed tubes. The tubes were then reweighed post resection, the difference giving the weight of each tissue. Radioactivity in each tissue was measured using a gamma counter. Counts were decay corrected to the time of injection and percentage of injected activity per gram (% IA/g) was calculated for each tissue based on the injected activity into each individual mouse. Injected activity was converted to counts based on the sensitivity of the gamma counter. The counts in tissue were then converted to the percentage of injected activity and this was divided by the mass of tissue to give % IA/g.

Series [4] has as its system CT26.DLL3 cells. As to the kind of experiment: Internalization (out of bound fraction) of [177Lu]Lu-test peptide, CT26.DLL3 cells. It is filed as cell-based. To be noted: 1 hour at 37° C., glycine pH 2.5 wash. The method, then: as §1, §2, §3, §4
Internalization: The resuspended cells in 300 μl of 1% PBSA and counted in the gamma counter as “bound fraction” were collected in 1.5 mL Eppendorf tube and pelleted. The pelleted cells were incubated with 300 μl of 50 mM Glycine pH=2.5 for 3 minutes and then pelleted discarding the supernatant. This process was repeated one more time. The pelleted cells were washed with 300 μl of cold 1% PBSA and then resuspended in 300 μl 0.3M NaOH. This was counted in the gamma counter as “internalized fraction”.
as §5

Numbered stars: 1 amine (or outer) side, 2 acyl side, 3 side chain; on linkers, the order of the positions; unused ones are H or OH. Bridge positions count the residues as written; N and C are the ends. Square brackets hold non-standard residues; d marks the D form. Peptide text beside a SMILES is read from it. * marks the point of attachment. Ala(piperidin-4-yl) = O=C([C@H](CC1CCN([*:3])CC1)N[*:1])[*:2]; DOTA = O=C(O)CN1CCN(CC(=O)O)CCN(CC(=O)*)CCN(CC(=O)O)CC1; Ala(morpholin-4-yl) = N[C@@H](CN1CCOCC1)C(=O)O; 2Nal = N[C@@H](Cc1ccc2ccccc2c1)C(=O)O; 4Pal = N[C@@H](Cc1ccncc1)C(=O)O

What is called Kd is the constant that tells how readily two partners part at equilibrium. On to `CC[C@H](C)[C@H](NC(=O)[C@@H](NC(=O)[C@H](Cc1c[nH]c2ccccc12)NC(C)=O)[C@@H](C)O)C(=O)N[C@H]1CSSC[C@@H](C(=O)N[C@@H](Cc2c[nH]c3ccccc23)C(=O)N2CCC[C@H]2C(=O)N[C@H](CCCCNC(=O)CN2CCN(CC(=O)O)CCN(CC(=O)O)CCN(CC(=O)O)CC2)C(N)=O)NC(=O)[C@H](CC(=O)O)NC(=O)[C@H](Cc2cnc[nH]2)NC(=O)[C@H](Cc2ccc3ccccc3c2)NC(=O)[C@H](CC(N)=O)NC(=O)[C@H](CC2CCNCC2)NC1=O` [compound 260, Ac-W-T-I-C(3)-[3-(4-piperidinyl)-Ala]-N-(2Nal)-H-D-C(3)-W-P-[D-Lys(DOTA)]-NH2] (Ac-WTIC[Ala(piperidin-4-yl)]N[2Nal]HDCWP[dK](DOTA)-NH2; disulfide 4-10), for which the Kd in series [1] is less than 1 nM. For the same compound, in series [2], the “% Binding” value was “B (25<%≤50)”. For the same compound, in series [3], the “kidney uptake (% IA/g)” value is recorded as “C (0 < % IA/g ≤ 10 in kidney)” and the “tumor uptake (% IA/g)” value is given as “A (0 < % IA/g ≤ 5 in tumor)”.
Take `CC[C@H](C)[C@H](NC(=O)[C@@H](NC(=O)[C@H](Cc1c[nH]c2ccccc12)NC(C)=O)[C@@H](C)O)C(=O)N[C@H]1CSSC[C@@H](C(=O)N[C@@H](Cc2c[nH]c3ccccc23)C(=O)N2CCC[C@H]2C(=O)N[C@H](CCCCNC(=O)CN2CCN(CC(=O)O)CCN(CC(=O)O)CCN(CC(=O)O)CC2)C(N)=O)NC(=O)[C@H](CC(=O)O)NC(=O)[C@H](Cc2cnc[nH]2)NC(=O)[C@H](Cc2ccc3ccccc3c2)NC(=O)[C@H](CC(N)=O)NC(=O)[C@H](CN2CCOCC2)NC1=O` [compound 261, Ac-W-T-I-C(3)-[3-(1-morpholinyl)-Ala]-N-(2Nal)-H-D-C(3)-W-P-[D-Lys(DOTA)]-NH2] (Ac-WTIC[Ala(morpholin-4-yl)]N[2Nal]HDCWP[dK](DOTA)-NH2; disulfide 4-10): the Kd in series [1] was less than 1 nM. For the same compound, the “% Binding” value in series [2] is “A (%≤25)”. For the same compound, the “% Internalization (out of bound fraction)” value in series [4] was “B (25<%≤50)”. Besides, in series [3], the “kidney uptake (% IA/g)” value is given as “C (0 < % IA/g ≤ 10 in kidney)” and the “tumor uptake (% IA/g)” value is “A (0 < % IA/g ≤ 5 in tumor)”.
The corresponding values for “Ac-(5Fluoro-W)-T-(CHA)-C(3)-N-N-(2Nal)-H-D-C(3)-(7Aza-W)-(trans4Fluoro-P)-[D-Lys(DOTA)]-NH2 [compound 245]” are less than 1 nM, “A (%≤25)”, “B (25<%≤50)”, “D (% IA/g > 10 in kidney)” and “A (0 < % IA/g ≤ 5 in tumor)”.
The corresponding values for `CC[C@H](C)[C@H](NC(=O)[C@@H](NC(=O)[C@H](Cc1c[nH]c2ccccc12)NC(C)=O)[C@@H](C)O)C(=O)N[C@H]1CSSC[C@@H](C(=O)N[C@@H](Cc2c[nH]c3ccccc23)C(=O)N2CCC[C@H]2C(=O)N[C@H](CCCCNC(=O)CN2CCN(CC(=O)O)CCN(CC(=O)O)CCN(CC(=O)O)CC2)C(N)=O)NC(=O)[C@H](CC(=O)O)NC(=O)[C@H](Cc2cnc[nH]2)NC(=O)[C@H](Cc2ccc3ccccc3c2)NC(=O)[C@H](Cc2ccncc2)NC(=O)[C@H](CC(N)=O)NC1=O` [compound 266, Ac-W-T-I-C(3)-N-(4Pya)-(2Nal)-H-D-C(3)-W-P-[D-Lys(DOTA)]-NH2] (Ac-WTICN[4Pal][2Nal]HDCWP[dK](DOTA)-NH2; disulfide 4-10) are less than 1 nM, “A (%≤25)”, “A (%≤25)”, “C (0 < % IA/g ≤ 10 in kidney)” and “A (0 < % IA/g ≤ 5 in tumor)”.
The corresponding values for `CC[C@H](C)[C@H](NC(=O)[C@@H](NC(=O)[C@H](Cc1c[nH]c2ccccc12)NC(C)=O)[C@@H](C)O)C(=O)N[C@H]1CSSC[C@@H](C(=O)N[C@@H](Cc2c[nH]c3ccccc23)C(=O)N2CCC[C@H]2C(=O)N[C@H](CCCCNC(=O)CN2CCN(CC(=O)O)CCN(CC(=O)O)CCN(CC(=O)O)CC2)C(N)=O)NC(=O)[C@H](CC(N)=O)NC(=O)[C@H](Cc2cnc[nH]2)NC(=O)[C@H](Cc2ccc3ccccc3c2)NC(=O)[C@H](CC(N)=O)NC(=O)[C@H](CC(N)=O)NC1=O` [compound 211, Ac-W-T-I-C(3)-N-N-(2Nal)-H-(Asn)-C(3)-W-P-[D-Lys(DOTA)]-NH2] (Ac-WTICNN[2Nal]HNCWP[dK](DOTA)-NH2; disulfide 4-10) are less than 1 nM, “A (%≤25)”, “B (25<%≤50)”, “D (% IA/g > 10 in kidney)” and “A (0 < % IA/g ≤ 5 in tumor)”.
Take `CC[C@H](C)[C@H](NC(=O)[C@@H](NC(=O)[C@H](Cc1c[nH]c2ccccc12)NC(C)=O)[C@@H](C)O)C(=O)N[C@H]1CSSC[C@@H](C(=O)N[C@@H](Cc2c[nH]c3ccccc23)C(=O)N2CCC[C@H]2C(=O)N[C@H](CCCCNC(=O)CN2CCN(CC(=O)O)CCN(CC(=O)O)CCN(CC(=O)O)CC2)C(N)=O)NC(=O)[C@H](CC(=O)O)NC(=O)[C@H](CCCCN)NC(=O)[C@H](Cc2ccc3ccccc3c2)NC(=O)[C@H](CC(N)=O)NC(=O)[C@H](CC(N)=O)NC1=O` [compound 237, Ac-W-T-I-C(3)-N-N-(2Nal)-K-D-C(3)-W-P-[D-Lys(DOTA)]-NH2] (Ac-WTICNN[2Nal]KDCWP[dK](DOTA)-NH2; disulfide 4-10): the Kd in series [1] was less than 1 nM. Besides, the “% Binding” value in series [2] was “A (%≤25)”.
